Assay results published in US20220220106A1, “QUINOLINE COMPOUNDS AND PHARMACEUTICAL COMPOSITIONS AND USES THEREOF” (Academy of Military Medical Sciences, priority 2019, published 2022).

Tests used:
mTOR kinase = molecular target: T1, mTOR kinase (Homo sapiens, UniProt P42345); assay: In vitro inhibitory activity on mTOR kinase (TR-FRET, GFP-4E-BP1 substrate); type: biochemical; conditions: for IC50: 0.5 μg/mL mTOR, 0.4 μM GFP-4E-BP1, 3 μM ATP
T1 construct: purchased Thermo Fisher PV4753
Method: Preparation of Reaction Buffers:
Basic buffer composition: 50 mM (mmol/L) HEPES (pH 7.5), 1 mM EGTA, 0.01% Tween-20, 10 mM MnCl2, 2 mM DTT (diluted from 500 mM before used).
(2) mTOR kinase buffer solution: 1650 μL of 2.5×mTOR kinase buffer solution was composed of 1640.2 μL of 1× basic buffer and 9.8 μL of mTOR (0.21 mg/mL stock solution), and the final concentration was 0.5 μg/mL.
(3) Detection buffer solution: 3960 μL of 2× detection buffer solution was composed of 3797.1 μL of TR-FRET buffer diluent (purchased from Thermo Fisher, catalog number: PV3574), 4.5 μL of Tb-anti-p4E-BP1 antibody (3.49 μM stock solution, purchased from Thermo Fisher, catalog number: PV4757) and 158 μL of EDTA (500 mM stock solution), and the final concentrations were 2 nM Tb-anti-p4E-BP1 antibody and 10 mM EDTA.
(1) 20 μL of 100% DMSO solution containing 5 mM compound to be tested was added to a 96-well plate.
(2) The compound was serially diluted 3 times in DMSO.
(3) 1 μL of the compound in the previous step was taken, diluted with 19 μL of mTOR kinase buffer, and transferred to another 96-well plate.
(4) 4 μL of mTOR kinase solution (purchased from Thermo Fisher, catalog number: PV4753) was added to a 384-well plate.
(5) 2 μL of the compound in G was taken out and added to the 384-well plate with mTOR kinase, and incubated at room temperature for 15 minutes.
(6) 4 μL of substrate solution was added to initiate the reaction.
The final concentrations of mTOR reaction solution were: 0.5 μg/mL mTOR, 0.4 μM GFP-4E-BP1, 3 μM ATP.
The final concentration of the DMSO solution was 1%.
(7) Incubation was performed for 60 minutes at room temperature.
(8) 10 μL of detection buffer was added. The final concentrations were 2 nM Tb-anti-p4E-BP1 antibody and 10 mM EDTA.
(9) Incubation was performed for 30 minutes at room temperature.
(10) TR-FRET value was read on MD5 multi-mode plate reader (Molecular Devices). The excitation wavelength was 340 nm, the emission wavelength 1 was 495 nm, and the emission wavelength 2 was 520 nm. The ratio of 520 nm/495 nm readings was calculated as TR-FRET value.
IC50 of compound was fitted by nonlinear regression equation:
Y=Bottom+(Top-Bottom)/(1+10^((LogIC50-X)*HillSlope));
X: common logarithm value of compound concentration; Y: TR-FRET value (520 nm/495 nm).

mTORC2 = molecular target: T2, mTORC2 (Homo sapiens, UniProt P42345); assay: Western blot, phosphorylation of Ser473 of Akt in RD cells (mTORC2 inhibition); type: cell-based; conditions: 20 μM, 2 hours, Western blot (FIG. 1)
T2 construct: endogenous in cells; host or cells: RD cells
Method: In order to test the inhibitory activity of the synthesized compounds on the two mTOR complexes, the inhibitory activity experiments of mTORC1 and mTORC2 were carried out. Since mTORC1 and mTORC2 exerted their function by activating the phosphorylation of downstream substrates, the inhibitory activity of the compounds on mTORC1 and mTORC2 could be determined by detecting the phosphorylation levels of the Thr389 site of mTORC1 downstream substrate p70S6K1 and the Ser473 site of mTORC2 downstream substrate Akt.
Pretreatment of Compound:
(1) RD cells were cultured in DMEM medium containing 10% FBS and 1×PS (penicillin and streptomycin were at concentrations 100 IU and 100 μg/mL, respectively) at 37° C. and 5% CO2.
(2) The RD cells (5×10^5 cells/2 mL medium) were inoculated into a 6-well plate and incubated at 37° C. and 5% CO2 for 24 hours.
(3) The cells were washed once with PBS, and the cells were cultured in serum-free medium without nutrients overnight.
(4) Formulation of compounds: […]
Preparation of insulin medium: Insulin was diluted in DMEM medium containing 10% FBS and 1×PS so that the final concentration of insulin was 167 nM.
Pretreatment of compound to be tested: The compound was dissolved in DMSO so that the concentration of the test compound was 20 mM, and the compound was diluted in 167 nM insulin medium to reach a concentration of 20 μM.
Preparation of rapamycin solution: Rapamycin was dissolved in DMSO to a concentration of 10 mM, and the rapamycin was diluted in 167 nM insulin medium to reach a concentration of 20 μM.
(5) The serum-free medium in each well was removed.
(6) 2 mL of complete medium containing DMSO was added to each well as a control carrier. The final concentration of DMSO was 0.2%.
(7) 2 mL of 20 μM rapamycin solution and 20 μM the compound to be tested were added to the designated wells, respectively. The final concentration of DMSO was 0.2%.
(8) The cells were incubated for 2 hours at 37° C. and 5% CO2.
Protein extraction and concentration determination:
(1) The cells were washed once with refrigerated PBS, and then the PBS was discarded.
(2) 150 μL of cell extraction buffer (RIPA, […], catalog number: C1053) was transferred into each well to lyse the cells, and then the resulting cell solution were incubated on ice for 30 minutes.
(3) Centrifugation was performed at 14000 rpm (13000× g) for 30 minutes at 4° C.
(4) The supernatant was transferred into a new eppendorf tube, and the cell lysate was stored at −80° C. before testing.
(5) The protein concentration was determined by BCA method.
Preparation of Buffer Solutions:
(1) 100× Protease inhibitor (Beyotime, catalog number: P1005): 1 mL of redistilled water was added to the protease inhibitor and stirred gently until the solid was completely dissolved.
(2) Lysis Buffer: […] of 100× protease inhibitor and 2× phosphatase inhibitor Cocktails PhosSTOP (Beyotime, catalog number: P1082) were added to 100 mL of the cell extract, and stirred gently until it was completely dissolved.
(3) Electrophoresis Running Buffer:
10×MOPS buffer: 52.33 g of MOPS, 30.29 g of Tris base, 10 mL of 0.5 mol/L EDTA (pH 8.5) and 5 g of SDS was dissolved in 400 mL of redistilled water, stirred to dissolve, and the pH was adjusted to 7.5, then redistilled water was added again to reach a volume of 500 mL; 1×MOPS: 100 mL of 10×MOPS was diluted with redistilled water to 1000 mL.
(4) 1× Transfer Buffer: […] of 10× transfer buffer (144 g of glucine, 30.3 g of trisbase, and distilled water were mixed to reach a volume of 1 L) and 400 mL of methanol were dissolved in 1500 mL of redistilled water, and then the redistilled water was added to reach a volume of 2000 mL. […]

| SMILES | inhibitory activity on mTOR kinase, in words (mTOR kinase) | IC50 (mTOR kinase) | phosphorylation expression level of Akt (mTORC2) |
| --- | --- | --- | --- |
| COc1ncc(-c2ccc3ncc4ccc(=O)n(-c5cccc(C(F)(F)F)c5)c4c3c2)cn1 [HTL-7-06, 9-[5-(2-methoxy)pyrimidyl]-2-oxo-1-[3-(trifluoromethyl)phenyl]-1,2-dihydrobenzo[h][1,6]naphthyridine] | excellent inhibitory activity | 4.82 nM | significantly down-regulate |
| CCCCC(=O)Nc1ccc(-c2ccc3ncc4ccc(=O)n(-c5cccc(C(F)(F)F)c5)c4c3c2)cn1 [HTL-7-08, 9-[3-(6-valerylamino)pyridyl]-2-oxo-1-[3-(trifluoromethyl)phenyl]-1,2-dihydrobenzo[h][1,6]naphthyridine] |  | 76.6 nM | significantly down-regulate |
| O=C(Cc1ccccc1)Nc1ccc(-c2ccc3ncc4ccc(=O)n(-c5cccc(C(F)(F)F)c5)c4c3c2)cn1 [HTL-7-10, 9-[3-(6-phenylacetylamino)pyridyl]-2-oxo-1-[3-(trifluoromethyl)phenyl]-1,2-dihydrobenzo[h][1,6]naphthyridine] |  | 34.8 nM | significantly down-regulate |
| COc1ccc(CC(=O)Nc2ccc(-c3ccc4ncc5ccc(=O)n(-c6cccc(C(F)(F)F)c6)c5c4c3)cn2)cc1 [HTL-7-11, 9-{3-[6-(4-methoxy)phenylacetylamino]pyridyl}-2-oxo-1-[3-(trifluoromethyl)phenyl]-1,2-dihydrobenzo[h][1,6]naphthyridine] |  | 32.5 nM | significantly down-regulate |
| O=c1ccc2cnc3ccc(C4=CCC5(CC4)OCCO5)cc3c2n1-c1cccc(C(F)(F)F)c1 [HTL-7-13, 9-(1,4-dioxa-spiro[4.5]dec-7-en-8-yl)-2-oxo-1-[3-(trifluoromethyl)phenyl]-1,2-dihydrobenzo[h][1,6]naphthyridine] |  | 86.1 nM | significantly down-regulate |
| O=C(Nc1ccc(-c2ccc3ncc4ccc(=O)n(-c5cccc(C(F)(F)F)c5)c4c3c2)cn1)OCc1ccccc1 [HTL-7-14, 9-[3-(6-benzyloxyamido)pyridyl]-2-oxo-1-[3-(trifluoromethyl)phenyl]-1,2-dihydrobenzo[h][1,6]naphthyridine] | moderate inhibitory activity | 306 nM | significantly down-regulate |
| O=C(Nc1ccc(-c2ccc3ncc4ccc(=O)n(-c5cccc(C(F)(F)F)c5)c4c3c2)cn1)Oc1ccccc1 [HTL-7-15, 9-[3-(6-phenoxyamido)pyridyl]-2-oxo-1-[3-(trifluoromethyl)phenyl]-1,2-dihydrobenzo[h][1,6]naphthyridine] |  | 25 nM | significantly down-regulate |
| CN(C)c1ccc(-c2ccc3ncc4ccc(=O)n(-c5cccc(C(F)(F)F)c5)c4c3c2)cn1 [HTL-7-16, 9-[3-(6-N,N-dimethyl)pyridyl]-2-oxo-1-[3-(trifluoromethyl)phenyl]-1,2-dihydrobenzo[h][1,6]naphthyridine] | excellent inhibitory activity | 8.91 nM | significantly down-regulate |
| CN1CCN(c2ccc(-c3ccc4ncc5ccc(=O)n(-c6cccc(C(F)(F)F)c6)c5c4c3)cn2)CC1 [HTL-7-17, 9-{3-[6-(4-methylpiperazin-1-yl)pyridyl]}-2-oxo-1-[3-(trifluoromethyl)phenyl]-1,2-dihydrobenzo[h][1,6]naphthyridine] | excellent inhibitory activity | 1.15 nM | significantly down-regulate |
| O=c1ccc2cnc3ccc(-c4ccc(N5CCOCC5)nc4)cc3c2n1-c1cccc(C(F)(F)F)c1 [HTL-7-18, 9-[3-(6-morpholin-4-yl)pyridyl]-2-oxo-1-[3-(trifluoromethyl)phenyl]-1,2-dihydrobenzo[h][1,6]naphthyridine] |  | 22.7 nM | significantly down-regulate |
| COc1cc(-c2ccc3ncc4ccc(=O)n(-c5cccc(C(F)(F)F)c5)c4c3c2)cnc1N [HTL-7-19, 9-[3-(6-amino-5-methoxy)pyridyl]-2-oxo-1-[3-(trifluoromethyl)phenyl]-1,2-dihydrobenzo[h][1,6]naphthyridine] | excellent inhibitory activity | 7.58 nM | significantly down-regulate |
| O=c1ccc2cnc3ccc(-c4ccc(N5CCCC5)nc4)cc3c2n1-c1cccc(C(F)(F)F)c1 [HTL-7-20, 9-[3-(6-pyrrolidinyl)pyridyl]-2-oxo-1-[3-(trifluoromethyl)phenyl]-1,2-dihydrobenzo[h][1,6]naphthyridine] |  | 11.3 nM | significantly down-regulate |
| CC(C)(C)OC(=O)Nc1ccc(-c2ccc3ncc4ccc(=O)n(-c5cccc(C(F)(F)F)c5)c4c3c2)cn1 [HTL-7-21, 9-[3-(6-tert-butoxycarbonylamino)pyridyl]-2-oxo-1-[3-(trifluoromethyl)phenyl]-1,2-dihydrobenzo[h][1,6]naphthyridine] |  | 11.9 nM | significantly down-regulate |
